Reference: patent US20180325914A1, “INCREASING STORAGE OF VITAMIN A, VITAMIN D AND/OR LIPIDS” (Salk Institute for Biological Studies, priority 2014, published 2018)

Tested on: primary HSCs

**Q.** Which “Stk39 value_2” value (Day_6_JQ1) does the source give for `Cc1sc2c(c1C)C(c1ccc(Cl)cc1)=N[C@@H](CC(=O)OC(C)(C)C)c1nnc(C)n1-2` [JQ1, (S)-tert-butyl 2-(4-(4-chlorophenyl)-2,3,9-trimethyl-6H-thieno[3,2-f][1,2,4]triazolo[4,3-a][1,4]diazepin-6-yl)acetate] here?
**A.** 17.0092

**Q.** And the “Sulf1 value_2” value (Day_6_JQ1)?
**A.** 53.8118

**Q.** And the “Tbxa2r value_2” value (Day_6_JQ1)?
**A.** 1.603

**Q.** What about the “Tcea3 value_2” value (Day_6_JQ1) of the same compound?
**A.** 1.947

**Q.** And the “Tead3 value_2” value (Day_6_JQ1)?
**A.** 19.5802

**Q.** And the “Thbs3 value_2” value (Day_6_JQ1)?
**A.** 1.4249

**Q.** What about the “Timp1 value_2” value (Day_6_JQ1) of the same compound?
**A.** 296.521

**Q.** And the “Tlcd2 value_2” value (Day_6_JQ1)?
**A.** 7.717

**Q.** And the “Tm7sf3 value_2” value (Day_6_JQ1)?
**A.** 17.8846

**Q.** What about the “Tmem14a value_2” value (Day_6_JQ1) of the same compound?
**A.** 2.145

**Q.** And the “Tmem38a value_2” value (Day_6_JQ1)?
**A.** 9.934

**Q.** What about the “Tmem45a value_2” value (Day_6_JQ1) of the same compound?
**A.** 21.4757

**Q.** And the “Tmem119 value_2” value (Day_6_JQ1)?
**A.** 38.7358

**Q.** What about the “Tpm1 value_2” value (Day_6_JQ1) of the same compound?
**A.** 1441.58

**Q.** What about the “Trf value_2” value (Day_6_JQ1) of the same compound?
**A.** 73.4499

**Q.** And the “Trim46 value_2” value (Day_6_JQ1)?
**A.** 1.758

**Q.** And the “Trnp1 value_2” value (Day_6_JQ1)?
**A.** 13.5695

**Q.** And the “Tsku value_2” value (Day_6_JQ1)?
**A.** 19.2147

**Q.** And the “Tspan2 value_2” value (Day_6_JQ1)?
**A.** 2.762

**Q.** And the “Tspan6 value_2” value (Day_6_JQ1)?
**A.** 21.2613

**Q.** And the “Ttc13 value_2” value (Day_6_JQ1)?
**A.** 20.1057

**Q.** What about the “Tubb2b value_2” value (Day_6_JQ1) of the same compound?
**A.** 18.8633

**Q.** And the “Tubb4 value_2” value (Day_6_JQ1)?
**A.** 12.0841

**Q.** What about the “Txndc5 value_2” value (Day_6_JQ1) of the same compound?
**A.** 194.663

**Q.** And the “Ube2c value_2” value (Day_6_JQ1)?
**A.** 30.6226

**Q.** What about the “Unc119 value_2” value (Day_6_JQ1) of the same compound?
**A.** 15.3231

**Q.** And the “Vash2 value_2” value (Day_6_JQ1)?
**A.** 1.343

**Q.** What about the “Vegfa value_2” value (Day_6_JQ1) of the same compound?
**A.** 27.576

**Q.** What about the “Wee1 value_2” value (Day_6_JQ1) of the same compound?
**A.** 8.031

**Q.** And the “Wfs1 value_2” value (Day_6_JQ1)?
**A.** 22.9762

**Q.** What about the “Whrn value_2” value (Day_6_JQ1) of the same compound?
**A.** 4.993

**Q.** What about the “Wnt4 value_2” value (Day_6_JQ1) of the same compound?
**A.** 18.5297

**Q.** And the “Wnt5a value_2” value (Day_6_JQ1)?
**A.** 7.524

**Q.** What about the “Wnt9a value_2” value (Day_6_JQ1) of the same compound?
**A.** 7.671

**Q.** And the “Ydjc value_2” value (Day_6_JQ1)?
**A.** 1.905

**Q.** And the “Zbtb8b value_2” value (Day_6_JQ1)?
**A.** 2.023

**Q.** What about the “Zyx value_2” value (Day_6_JQ1) of the same compound?
**A.** 185.005

**Q.** What about the “1190002N15Rik value_2” value (gene 1190002N15Rik, mRNA-Seq, sample Day_6_JQ1) of the same compound?
**A.** 132.567

**Q.** And the “Aard value_2” value (gene Aard, mRNA-Seq, sample Day_6_JQ1)?
**A.** 83.973

**Q.** What about the “Abat value_2” value (gene Abat, mRNA-Seq, sample Day_6_JQ1) of the same compound?
**A.** 35.0761

**Q.** What about the “Adamts5 value_2” value (gene Adamts5, mRNA-Seq, sample Day_6_JQ1) of the same compound?
**A.** 91.9646

**Q.** And the “Aldh1a1 value_2” value (gene Aldh1a1, mRNA-Seq, sample Day_6_JQ1)?
**A.** 311.654

**Q.** What about the “Arxes2 value_2” value (gene Arxes2, mRNA-Seq, sample Day_6_JQ1) of the same compound?
**A.** 27.1896

**Q.** And the “Asf1b value_2” value (gene Asf1b, mRNA-Seq, sample Day_6_JQ1)?
**A.** 22.9334

**Q.** And the “Atoh8 value_2” value (gene Atoh8, mRNA-Seq, sample Day_6_JQ1)?
**A.** 73.1716

**Q.** What about the “Barx1 value_2” value (gene Barx1, mRNA-Seq, sample Day_6_JQ1) of the same compound?
**A.** 11.4288

**Q.** And the “Bcmo1 value_2” value (gene Bcmo1, mRNA-Seq, sample Day_6_JQ1)?
**A.** 159.902

**Q.** And the “Birc5 value_2” value (gene Birc5, mRNA-Seq, sample Day_6_JQ1)?
**A.** 50.4974

**Q.** What about the “Bub1 value_2” value (gene Bub1, mRNA-Seq, sample Day_6_JQ1) of the same compound?
**A.** 8.993

**Q.** What about the “Casc4 value_2” value (gene Casc4, mRNA-Seq, sample Day_6_JQ1) of the same compound?
**A.** 36.8307

**Q.** What about the “Cd248 value_2” value (gene Cd248, mRNA-Seq, sample Day_6_JQ1) of the same compound?
**A.** 118.878

**Q.** And the “Cdca5 value_2” value (gene Cdca5, mRNA-Seq, sample Day_6_JQ1)?
**A.** 10.0872

**Q.** And the “Cdon value_2” value (gene Cdon, mRNA-Seq, sample Day_6_JQ1)?
**A.** 16.8708

**Q.** And the “Cep55 value_2” value (gene Cep55, mRNA-Seq, sample Day_6_JQ1)?
**A.** 13.1668

**Q.** And the “Ckap2 value_2” value (gene Ckap2, mRNA-Seq, sample Day_6_JQ1)?
**A.** 33.1117

**Q.** What about the “Clca1 value_2” value (gene Clca1, mRNA-Seq, sample Day_6_JQ1) of the same compound?
**A.** 52.2679

**Q.** And the “Col14a1 value_2” value (gene Col14a1, mRNA-Seq, sample Day_6_JQ1)?
**A.** 181.433

**Q.** And the “Ddr1 value_2” value (gene Ddr1, mRNA-Seq, sample Day_6_JQ1)?
**A.** 106.289

**Q.** And the “Dzip1 value_2” value (gene Dzip1, mRNA-Seq, sample Day_6_JQ1)?
**A.** 31.5814

**Q.** What about the “Efemp1 value_2” value (gene Efemp1, mRNA-Seq, sample Day_6_JQ1) of the same compound?
**A.** 205.387

**Q.** What about the “Egr1 value_2” value (gene Egr1, mRNA-Seq, sample Day_6_JQ1) of the same compound?
**A.** 141.166

**Q.** What about the “Emilin2 value_2” value (gene Emilin2, mRNA-Seq, sample Day_6_JQ1) of the same compound?
**A.** 88.1199

**Q.** And the “Epha7 value_2” value (gene Epha7, mRNA-Seq, sample Day_6_JQ1)?
**A.** 11.3808

**Q.** What about the “Fam117a value_2” value (gene Fam117a, mRNA-Seq, sample Day_6_JQ1) of the same compound?
**A.** 15.5563

**Q.** And the “Fam123b value_2” value (gene Fam123b, mRNA-Seq, sample Day_6_JQ1)?
**A.** 9.43

**Q.** What about the “Fam83d value_2” value (gene Fam83d, mRNA-Seq, sample Day_6_JQ1) of the same compound?
**A.** 24.1741

**Q.** What about the “Fbln1 value_2” value (gene Fbln1, mRNA-Seq, sample Day_6_JQ1) of the same compound?
**A.** 13.4635

**Q.** And the “Fbln5 value_2” value (gene Fbln5, mRNA-Seq, sample Day_6_JQ1)?
**A.** 79.5082

**Q.** And the “Fgfr2 value_2” value (gene Fgfr2, mRNA-Seq, sample Day_6_JQ1)?
**A.** 86.0077

**Q.** What about the “Fhl1 value_2” value (gene Fhl1, mRNA-Seq, sample Day_6_JQ1) of the same compound?
**A.** 503.063

**Q.** And the “Figf value_2” value (gene Figf, mRNA-Seq, sample Day_6_JQ1)?
**A.** 27.0541

**Q.** And the “Gamt value_2” value (gene Gamt, mRNA-Seq, sample Day_6_JQ1)?
**A.** 12.8445

**Q.** And the “Gdf11 value_2” value (gene Gdf11, mRNA-Seq, sample Day_6_JQ1)?
**A.** 22.9531

**Q.** And the “Ghr value_2” value (gene Ghr, mRNA-Seq, sample Day_6_JQ1)?
**A.** 60.5749

**Q.** And the “H1fx value_2” value (gene H1fx, mRNA-Seq, sample Day_6_JQ1)?
**A.** 50.515

**Q.** What about the “H2afx value_2” value (gene H2afx, mRNA-Seq, sample Day_6_JQ1) of the same compound?
**A.** 155.278

**Q.** What about the “H19 value_2” value (gene H19, mRNA-Seq, sample Day_6_JQ1) of the same compound?
**A.** 82.2113

**Q.** And the “Hist1h1c value_2” value (gene Hist1h1c, mRNA-Seq, sample Day_6_JQ1)?
**A.** 246.293

**Q.** What about the “Hmcn1 value_2” value (gene Hmcn1, mRNA-Seq, sample Day_6_JQ1) of the same compound?
**A.** 13.3966

**Q.** What about the “Hmgn3 value_2” value (gene Hmgn3, mRNA-Seq, sample Day_6_JQ1) of the same compound?
**A.** 59.5606

**Q.** And the “Hspa2 value_2” value (gene Hspa2, mRNA-Seq, sample Day_6_JQ1)?
**A.** 19.5751

**Q.** And the “Igf2r value_2” value (gene Igf2r, mRNA-Seq, sample Day_6_JQ1)?
**A.** 67.7147

**Q.** And the “Igfbp6 value_2” value (gene Igfbp6, mRNA-Seq, sample Day_6_JQ1)?
**A.** 52.4488

**Q.** And the “Isyna1 value_2” value (gene Isyna1, mRNA-Seq, sample Day_6_JQ1)?
**A.** 113.425

**Q.** And the “Itga1 value_2” value (gene Itga1, mRNA-Seq, sample Day_6_JQ1)?
**A.** 101.182

**Q.** What about the “Itm2a value_2” value (gene Itm2a, mRNA-Seq, sample Day_6_JQ1) of the same compound?
**A.** 59.8717

**Q.** What about the “Kif23 value_2” value (gene Kif23, mRNA-Seq, sample Day_6_JQ1) of the same compound?
**A.** 11.9374

**Q.** And the “Kifc1 value_2” value (gene Kifc1, mRNA-Seq, sample Day_6_JQ1)?
**A.** 15.9311

**Q.** What about the “Klhl13 value_2” value (gene Klhl13, mRNA-Seq, sample Day_6_JQ1) of the same compound?
**A.** 100

**Q.** And the “Lama1 value_2” value (gene Lama1, mRNA-Seq, sample Day_6_JQ1)?
**A.** 16.8277

**Q.** And the “Lum value_2” value (gene Lum, mRNA-Seq, sample Day_6_JQ1)?
**A.** 485.984

**Q.** What about the “Mad2l1 value_2” value (gene Mad2l1, mRNA-Seq, sample Day_6_JQ1) of the same compound?
**A.** 31.9743

**Q.** And the “Mapk8ip1 value_2” value (gene Mapk8ip1, mRNA-Seq, sample Day_6_JQ1)?
**A.** 16.3375

**Q.** And the “Meis1 value_2” value (gene Meis1, mRNA-Seq, sample Day_6_JQ1)?
**A.** 24.7836

**Q.** And the “Mmp17 value_2” value (gene Mmp17, mRNA-Seq, sample Day_6_JQ1)?
**A.** 25.3895

**Q.** What about the “Mxd4 value_2” value (gene Mxd4, mRNA-Seq, sample Day_6_JQ1) of the same compound?
**A.** 76.146

**Q.** What about the “Ncapd2 value_2” value (gene Ncapd2, mRNA-Seq, sample Day_6_JQ1) of the same compound?
**A.** 18.5667

**Q.** What about the “Ncapg2 value_2” value (gene Ncapg2, mRNA-Seq, sample Day_6_JQ1) of the same compound?
**A.** 11.6063

**Q.** And the “Ncaph value_2” value (gene Ncaph, mRNA-Seq, sample Day_6_JQ1)?
**A.** 16.1078

**Q.** What about the “Nek2 value_2” value (gene Nek2, mRNA-Seq, sample Day_6_JQ1) of the same compound?
**A.** 11.522

**Q.** And the “Nusap1 value_2” value (gene Nusap1, mRNA-Seq, sample Day_6_JQ1)?
**A.** 10.0613

**Q.** What about the “Pcsk6 value_2” value (gene Pcsk6, mRNA-Seq, sample Day_6_JQ1) of the same compound?
**A.** 16.0741

**Q.** What about the “Pcyox1 value_2” value (gene Pcyox1, mRNA-Seq, sample Day_6_JQ1) of the same compound?
**A.** 135.704

**Q.** And the “Peg3 value_2” value (gene Peg3, mRNA-Seq, sample Day_6_JQ1)?
**A.** 37.0421

**Q.** And the “Peg10 value_2” value (gene Peg10, mRNA-Seq, sample Day_6_JQ1)?
**A.** 121.813

**Q.** And the “Pkia value_2” value (gene Pkia, mRNA-Seq, sample Day_6_JQ1)?
**A.** 28.0014
